Source: US20230322846A9, “NEUROACTIVE STEROIDS AND THEIR METHODS OF USE” (SAGE THERAPEUTICS, INC., priority 2018, published 2023)

What follows are compounds tested against [35S]-TBPS binding, rat brain cortical membranes (assay: Steroid inhibition of [35S]-TBPS binding). Details: 3 nM [35S]-TBPS, in the presence of 5 mM GABA.
Summary of the method: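 Rat cortical P2 membranes incubated 90 min at room temperature with 3 nM [35S]-TBPS, […] and test compound (0.5% DMSO final) in NaCl/Na–K phosphate pH 7.4; nonspecific binding with […]. Filter-bound radioactivity counted; IC50 and Imax from nonlinear fits, mean ± SEM.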

COC[C@@]1(O)CC[C@H]2[C@H](CC[C@@H]3[C@@H]2CC[C@]2(C)[C@@H]([C@@H](C)Nc4ccc(C#N)nc4)CC[C@@H]32)C1 [Example 258] and CCOC[C@@]1(O)CC[C@H]2[C@H](CC[C@@H]3[C@@H]2CC[C@]2(C)[C@@H]([C@@H](C)Nc4ccc(C#N)nc4)CC[C@@H]32)C1 [Example 261] fall in the same range of IC50: 100 to 1000 nM for the first, 100 to 1000 nM for the second.

CCOC[C@@]1(O)CC[C@H]2[C@H](CC[C@@H]3[C@@H]2CC[C@]2(C)[C@@H]([C@@H](C)Nc4cccc(N5CCCC5=O)c4C)CC[C@@H]32)C1 [Example 259] and CCOC[C@@]1(O)CC[C@H]2[C@H](CC[C@@H]3[C@@H]2CC[C@]2(C)[C@@H]([C@@H](C)Nc4cccnc4F)CC[C@@H]32)C1 [Example 262] cannot be ordered by IC50: under 100 nM for the first, under 100 nM for the second.

First: CCOC[C@@]1(O)CC[C@H]2[C@H](CC[C@@H]3[C@@H]2CC[C@]2(C)[C@@H]([C@@H](C)Nc4ccc(C#N)cc4C)CC[C@@H]32)C1 [Example 260]
Second: CCOC[C@@]1(O)CC[C@H]2[C@H](CC[C@@H]3[C@@H]2CC[C@]2(C)[C@@H]([C@@H](C)Nc4ccc(-n5ccc(C#N)n5)nc4)CC[C@@H]32)C1 [Example 264]
The IC50 of the first is lower: under 100 nM for the first, 100 to 1000 nM for the second.

CCOC[C@@]1(O)CC[C@H]2[C@H](CC[C@@H]3[C@@H]2CC[C@]2(C)[C@@H]([C@H](C)Cn4nccn4)CC[C@@H]32)C1 [Example 265, (3R,5R,8R,9R,10S,13S,14S,17R)-17-((S)-1-(2H-1,2,3-triazol-2-yl)propan-2-yl)-3-(ethoxymethyl)-13-methylhexadecahydro-1H-cyclopenta[a]phenanthren-3-ol] and CCOC[C@@]1(O)CC[C@H]2[C@H](CC[C@@H]3[C@@H]2CC[C@]2(C)[C@@H]([C@@H](C)Cn4nccn4)CC[C@@H]32)C1 [Example 266, (3R,5R,8R,9R,10S,13S,14S,17R)-17-((R)-1-(2H-1,2,3-triazol-2-yl)propan-2-yl)-3-(ethoxymethyl)-13-methylhexadecahydro-1H-cyclopenta[a]phenanthren-3-ol] fall in the same range of IC50: 100 to 1000 nM for the first, 100 to 1000 nM for the second.

CCOC[C@@]1(O)CC[C@H]2[C@H](CC[C@@H]3[C@@H]2CC[C@]2(C)[C@@H]([C@H](C)Cn4ccnn4)CC[C@@H]32)C1 [Example 267, (3R,5R,8R,9R,10S,13S,14S,17R)-17-((S)-1-(1H-1,2,3-triazol-1-yl)propan-2-yl)-3-(ethoxymethyl)-13-methylhexadecahydro-11H-cyclopenta[a]phenanthren-3-ol] and CCOC[C@@]1(O)CC[C@H]2[C@H](CC[C@@H]3[C@@H]2CC[C@]2(C)[C@@H]([C@@H](C)Cn4ccnn4)CC[C@@H]32)C1 [Example 268, (3R,5R,8R,9R,10S,13S,14S,17R)-17-((R)-1-(1H-1,2,3-triazol-1-yl)propan-2-yl)-3-(ethoxymethyl)-13-methylhexadecahydro-1H-cyclopenta[a]phenanthren-3-ol] cannot be ordered by IC50: under 100 nM for the first, under 100 nM for the second.

CCOC[C@@]1(O)CC[C@H]2[C@H](CC[C@@H]3[C@@H]2CC[C@]2(C)[C@@H]([C@@H](C)Cn4cc(C#N)cn4)CC[C@@H]32)C1 [Example 269, 1-((R)-2-((3R,5R,8R,9R,10S,13S,14S,17R)-3-(ethoxymethyl)-3-hydroxy-13-methylhexadecahydro-1H-cyclopenta[a]phenanthren-17-yl)propyl)-1H-pyrazole-4-carbonitrile] and CC[C@@]1(O)CC[C@H]2[C@H](CC[C@@H]3[C@@H]2CC[C@]2(C)[C@@H]([C@@H](C)Cn4cc(C#N)cn4)CC[C@@H]32)C1 [Example 275, 1-((R)-2-((3R,5R,8R,9R,10S,13S,14S,17R)-3-ethyl-3-hydroxy-13-methylhexadecahydro-1H-cyclopenta[a]phenanthren-17-yl)propyl)-1H-pyrazole-4-carbonitrile] cannot be ordered by IC50: under 100 nM for the first, under 100 nM for the second.

CC[C@@]1(O)CC[C@H]2[C@H](CC[C@@H]3[C@@H]2CC[C@]2(C)[C@@H]([C@H](C)Cn4ccc(C#N)n4)CC[C@@H]32)C1 [Example 271, 1-((S)-2-((3R,5R,8R,9R,10S,13S,14S,17R)-3-ethyl-3-hydroxy-13-methylhexadecahydro-1H-cyclopenta[a]phenanthren-17-yl)propyl)-1H-pyrazole-3-carbonitrile] and CC[C@@]1(O)CC[C@H]2[C@H](CC[C@@H]3[C@@H]2CC[C@]2(C)[C@@H]([C@@H](C)Cn4nccc4C#N)CC[C@@H]32)C1 [Example 273, 1-((R)-2-((3R,5R,8R,9R,10S,13S,14S,17R)-3-ethyl-3-hydroxy-13-methylhexadecahydro-1H-cyclopenta[a]phenanthren-17-yl)propyl)-1H-pyrazole-5-carbonitrile] cannot be ordered by IC50: under 100 nM for the first, under 100 nM for the second.

Compared with CC[C@@]1(O)CC[C@H]2[C@H](CC[C@@H]3[C@@H]2CC[C@]2(C)[C@@H]([C@H](C)Cn4nccc4C#N)CC[C@@H]32)C1 [Example 274, 1-((S)-2-((3R,5R,8R,9R,10S,13S,14S,17R)-3-ethyl-3-hydroxy-13-methylhexadecahydro-1H-cyclopenta[a]phenanthren-17-yl)propyl)-1H-pyrazole-5-carbonitrile], CCOC[C@@]1(O)CC[C@H]2[C@H](CC[C@@H]3[C@@H]2CC[C@]2(C)[C@@H]([C@@H](C)Cn4nccc4C#N)CC[C@@H]32)C1 [Example 285, 1-((R)-2-((3R,5R,8R,9R,10S,13S,14S,17R)-3-(ethoxymethyl)-3-hydroxy-13-methylhexadecahydro-1H-cyclopenta[a]phenanthren-17-yl)propyl)-1H-pyrazole-5-carbonitrile] is lower in IC50: 100 to 1000 nM for the first, under 100 nM for the second. The second is the more potent here.

Compared with CCOC[C@@]1(O)CC[C@@]2(C)[C@H](CC[C@@H]3[C@@H]2CC[C@]2(C)[C@@H]([C@@H](C)Cn4ccc(C#N)n4)CC[C@@H]32)C1 [Example 279, 1-((R)-2-((3R,5R,8R,9S,10S,13S,14S,17R)-3-(ethoxymethyl)-3-hydroxy-10,13-dimethylhexadecahydro-1H-cyclopenta[a]phenanthren-17-yl)propyl)-1H-pyrazole-3-carbonitrile], COC[C@@]1(O)CC[C@@]2(C)[C@H](CC[C@@H]3[C@@H]2[C@H](O)C[C@]2(C)[C@@H]([C@H](C)Cn4cc(C#N)cn4)CC[C@@H]32)C1 [Example 282, 1-((S)-2-((3R,5R,8S,9S,10S,11R,13S,14S,17R)-3,11-dihydroxy-3-(methoxymethyl)-10,13-dimethylhexadecahydro-1H-cyclopenta[a]phenanthren-17-yl)propyl)-1H-pyrazole-4-carbonitrile] is higher in IC50: under 100 nM for the first, 100 to 1000 nM for the second.

COC[C@@]1(O)CC[C@@]2(C)[C@H](CC[C@@H]3[C@@H]2[C@H](O)C[C@]2(C)[C@@H]([C@@H](C)Cn4cc(C#N)cn4)CC[C@@H]32)C1 [Example 283, 1-((R)-2-((3R,5R,8S,9S,10S,11R,13S,14S,17R)-3,11-dihydroxy-3-(methoxymethyl)-10,13-dimethylhexadecahydro-1H-cyclopenta[a]phenanthren-17-yl)propyl)-1H-pyrazole-4-carbonitrile] showed an IC50 of 100 to 1000 nM.
